# Test results as given in patent US20090082435A1, “Methods, Compositions, And Compounds For Modulation Of Monoacylglycerol Lipase, Pain, And Stress-Related Disorders” (The Regents of the University of California, priority 2005, published 2009).
# What was measured:
# [1] = system: stress-induced analgesia in rats; assay: non-opioid stress-induced analgesia: foot shock, then tail-flick test; format: in vivo, rat
# native rat brain MGL = target: T1, native rat brain MGL (Rattus norvegicus, UniProt Q8R431); assay: MGL activity assay, rat brain cytosol, 2-monooleoylglycerol substrate; format: biochemical; conditions: for effect on rat brain MGL activity in vitro: FIG. 3b
# T1 construct: from tissue; host or cells: Wistar rat brain, cytosol fraction
# T1 sequence (Q8R431 1-303): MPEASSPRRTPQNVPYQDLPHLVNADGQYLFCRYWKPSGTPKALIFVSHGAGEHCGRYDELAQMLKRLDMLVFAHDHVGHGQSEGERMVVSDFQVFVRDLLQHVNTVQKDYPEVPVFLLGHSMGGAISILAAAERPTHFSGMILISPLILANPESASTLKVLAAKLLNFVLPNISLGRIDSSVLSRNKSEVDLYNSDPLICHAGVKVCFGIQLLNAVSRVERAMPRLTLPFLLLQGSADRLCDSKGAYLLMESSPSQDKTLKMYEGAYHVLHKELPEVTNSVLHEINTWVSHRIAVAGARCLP
# [2] = system: organotypic slice cultures of rat forebrain; assay: endocannabinoid content by LC/MS in organotypic brain slice cultures; format: cell-based; conditions: URB602 100 μM; for anandamide levels: URB597 1 μM
# Procedure: Brain slice cultures. Brain slices were cultured from Wistar rats. Pups were sacrificed on post-natal day 5 by decapitation following cryo-anaesthesia. Brains were removed and cut (0.4 mm-thick coronal slices) using a vibratome in a bath of ice-cold high-glucose Dulbecco's Modified Eagle's Medium (Gibco). Hemispheres were placed on Millicell culture inserts (Millipore) in 6-well plates with serum-based culture medium (1.5 ml) composed of basal Eagle medium with Earle's salts (100 ml), Earle's balanced salt solution (50 ml), heat-inactivated horse serum (50 ml), L-glutamine (0.2 mM, 1 ml) and 50% glucose (2 ml) (Gibco). Slices were maintained at 37° C. with 5% CO2 for 7 days before use.
# (§1) Lipid extractions and LC/MS analyses. Ex vivo experiments. Rats were habituated to the guillotine for at least 7 days prior to the experiment and sacrificed them either before or various times (2, 7, 15 and 25 min) after a 3-min foot shock (n=10 per group). The brains were rapidly removed, dissected and stored frozen (−80° C.) until lipid extraction. In vitro experiments. […] In some experiments, slices were incubated with ionomycin (2 μM) in DMEM for additional 15 min. Reactions were stopped and washed with ice-cold 50% methanol (1 ml). Slices were collected in the same medium (0.2 ml) and homogenized. Brain tissue (≈50 mg) and slice homogenates were suspended in methanol (2 ml) containing [^2H]-containing internal standards (25 pmol). Lipids were extracted in methanol-chloroform-H2O (1:2:0.25). The organic phase was recovered, evaporated to dryness, reconstituted in chloroform/methanol (1:3, 80 μL) and subjected to LC/MS analysis as described (Giuffrida, A. et al., Anal. Biochem. 280:87-93 (2000)).
# [3] = system: tail-flick latencies in rats; assay: tail-flick test without stressor: basal thresholds, agonist antinociception; format: in vivo, rat; conditions: for basal nociceptive threshold (tail-flick latencies) in absence of stressor: same doses and routes as in stress analgesia tests; for drug's own antinociceptive effects after repeated daily injections: prior to foot shock, WIN55,212-2 14 days, morphine 7 days
# rat brain FAAH = target: T2, rat brain FAAH (Rattus norvegicus, UniProt P97612); assay: FAAH activity assay, rat brain membranes, anandamide substrate; format: biochemical; conditions: FIG. 3c
# T2 construct: from tissue; host or cells: Wistar rat brain, membrane fraction
# T2 sequence (P97612 1-579): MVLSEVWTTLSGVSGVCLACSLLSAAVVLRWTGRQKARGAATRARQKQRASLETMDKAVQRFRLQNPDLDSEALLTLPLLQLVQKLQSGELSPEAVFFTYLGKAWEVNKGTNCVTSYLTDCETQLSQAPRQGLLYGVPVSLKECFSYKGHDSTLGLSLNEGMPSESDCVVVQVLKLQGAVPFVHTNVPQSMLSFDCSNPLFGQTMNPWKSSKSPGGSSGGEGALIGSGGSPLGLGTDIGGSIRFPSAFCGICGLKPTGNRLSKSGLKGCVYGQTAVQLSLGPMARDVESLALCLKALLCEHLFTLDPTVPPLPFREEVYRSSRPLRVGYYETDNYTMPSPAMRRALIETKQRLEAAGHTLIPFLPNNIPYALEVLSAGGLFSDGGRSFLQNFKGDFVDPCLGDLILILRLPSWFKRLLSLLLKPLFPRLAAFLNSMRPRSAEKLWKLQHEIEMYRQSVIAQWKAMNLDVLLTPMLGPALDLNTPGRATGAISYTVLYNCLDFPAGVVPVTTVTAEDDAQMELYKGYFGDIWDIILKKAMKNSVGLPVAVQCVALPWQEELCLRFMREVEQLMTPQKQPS
# [4] = system: diacylglycerol lipase (DGL); assay: DGL activity assay, rat brain protein, [3H]dioleoylglycerol; format: biochemical
# cyclooxygenase (Cox)-2 = target: T3, cyclooxygenase (Cox)-2 (Homo sapiens, UniProt P35354); assay: cyclooxygenase assay, commercial kit with purified enzymes; format: biochemical
# T3 construct: purchased Cayman Chemicals, Ann Arbor, Mich
# T3 sequence (P35354 18-604): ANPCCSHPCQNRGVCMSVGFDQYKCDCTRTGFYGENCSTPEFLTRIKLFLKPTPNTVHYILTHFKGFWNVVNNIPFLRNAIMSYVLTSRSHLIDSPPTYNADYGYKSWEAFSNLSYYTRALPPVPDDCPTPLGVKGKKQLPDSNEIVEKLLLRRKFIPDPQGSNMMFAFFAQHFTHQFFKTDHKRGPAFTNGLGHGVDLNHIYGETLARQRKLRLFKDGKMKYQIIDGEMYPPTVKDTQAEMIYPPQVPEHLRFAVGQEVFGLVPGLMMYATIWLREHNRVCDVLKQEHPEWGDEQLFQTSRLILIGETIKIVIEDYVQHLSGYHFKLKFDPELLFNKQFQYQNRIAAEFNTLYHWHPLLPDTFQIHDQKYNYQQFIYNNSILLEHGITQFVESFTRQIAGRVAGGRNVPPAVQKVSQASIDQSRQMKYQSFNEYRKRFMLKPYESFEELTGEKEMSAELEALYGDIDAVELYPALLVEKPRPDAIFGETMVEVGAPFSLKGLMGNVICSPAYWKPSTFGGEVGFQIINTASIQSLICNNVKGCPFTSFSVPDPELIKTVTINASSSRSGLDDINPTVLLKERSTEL
# phospholipase C (PLC) = phospholipase C (PLC) (Bacillus cereus, UniProt P09598); assay: phospholipase C activity assay; format: biochemical, B. cereus
# PLD = assay: phospholipase D activity assay; format: biochemical, S. chromofuscus
# rat cerebellar membranes = assay: [35S]-GTP-γ-S binding to rat cerebellar membranes; format: biochemical; conditions: data not shown; read-out: half-maximal effective concentration (EC50), [35S]-GTP-γ-S binding
# [5] = system: 2-AG and anandamide levels in rat brain; assay: ex vivo brain endocannabinoid levels by LC/MS after PAG microinjection and foot shock; format: in vivo
# Procedure: as §1
# [6] = URB602 0.1 nmol in PAG, 25 min after shock
# Sequence of phospholipase C (PLC) (P09598 39-283 limits assumed): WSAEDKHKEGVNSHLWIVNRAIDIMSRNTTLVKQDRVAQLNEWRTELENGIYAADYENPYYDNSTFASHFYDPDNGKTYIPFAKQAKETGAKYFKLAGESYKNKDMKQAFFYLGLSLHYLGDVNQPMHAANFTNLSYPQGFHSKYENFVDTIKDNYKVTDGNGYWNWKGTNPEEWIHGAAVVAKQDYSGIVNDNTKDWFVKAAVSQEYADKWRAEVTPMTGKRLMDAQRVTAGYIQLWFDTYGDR
structure (smiles),measurement,setting,value
Cc1c(C(=O)NN2CCCCC2)nn(-c2ccc(Cl)cc2Cl)c1-c1ccc(I)cc1 [AM251],"effect of antagonist on stress-induced analgesia, systemic","[1]; rat, in vivo, ip",almost abolished
NC(=O)c1cccc(-c2cccc(OC(=O)NC3CCCCC3)c2)c1 [URB597],effect on rat brain MGL activity in vitro,native rat brain MGL,no effect
same,anandamide levels,[2],markedly elevated
same,"effect on stress-induced analgesia, URB597 in dorsolateral PAG","[1]; rat, in vivo",significant potentiation
same,"effect on stress-induced analgesia, URB597 systemic","[1]; rat, in vivo, ip",significant potentiation
same,basal nociceptive threshold (tail-flick latencies) in absence of stressor,[3],did not modify
"O=C(Nc1cccc(-c2ccccc2)c1)OC1CCCCC1 [URB602, biphenyl-3-yl carbamic acid cyclohexyl ester]",effect on rat brain MGL activity in vitro,native rat brain MGL,inhibits
same,IC50,"native rat brain MGL; broken cell preparations, read-out: half-maximal concentration (IC50) for inhibition of MGL",28 ± 4 µM
same,mechanism of MGL inhibition,native rat brain MGL; kinetic analyses,non-competitive
same,Vmax of MGL with URB602,"native rat brain MGL; n=4, without URB602 1814±51",541±20 nmol-min-mg^−1 protein
same,effect on rat brain FAAH activity,rat brain FAAH,does not affect
same,effect on DGL activity,[4],did not affect
same,effect on Cox-2 activity,cyclooxygenase (Cox)-2,did not affect
same,effect on PLC activity,phospholipase C (PLC),did not affect
same,effect on PLD activity,PLD,did not affect
same,EC50,rat cerebellar membranes,> 100 µM
same,basal 2-AG levels,[2],significantly increased
same,anandamide levels,[2],did not modify
same,2-AG accumulation elicited by ionomycin,[2]; ionomycin 2 μM,enhanced
same,"effect on stress-induced analgesia, URB602 in dorsolateral PAG",[1]; 0.1 nmol microinjection,enhanced
same,"effect on stress-induced analgesia, URB602 in ventrolateral PAG",[1]; 0.1 nmol microinjection,enhanced
same,basal nociceptive threshold (tail-flick latencies) in absence of stressor,[3],without altering
same,2-AG content in midbrain fragments vs untreated controls,[5]; [6],significantly higher
same,anandamide levels in midbrain vs untreated controls,[5]; [6],identical
same,2-AG and anandamide concentrations in occipital cortex,[5]; URB602 injection into the PAG,not affected
"Cc1c(C(=O)c2cccc3ccccc23)c2cccc3c2n1[C@H](CN1CCOCC1)CO3 [WIN55, 212-2]",stress-induced analgesia in rats made tolerant to the agonist,"[1]; rat, in vivo",marked reduction
same,drug's own antinociceptive effects after repeated daily injections,[3],decrease
CN1CC[C@]23c4c5ccc(O)c4O[C@H]2[C@@H](O)C=C[C@H]3[C@H]1C5 [morphine],stress-induced analgesia in rats made tolerant to the agonist,"[1]; rat, in vivo",normal degree
same,"mean tail-flick latency after morphine, cannabinoid tolerant rats","[3]; morphine 2.5 mg-kg^−1 s.c., rats tolerant to WIN55,212-2, n=6-7",6.09 ± 1.93 s
same,"mean tail-flick latency after morphine, control rats","[3]; morphine 2.5 mg-kg^−1 s.c., vehicle-treated controls, n=6-7",5.33 ± 0.21 s
same,drug's own antinociceptive effects after repeated daily injections,[3],decrease
O=C1CC[C@@]2(O)[C@H]3Cc4ccc(O)c5c4[C@@]2(CCN3CC2CC2)[C@H]1O5 [naltrexone],"effect of antagonist on stress-induced analgesia, systemic","[1]; rat, in vivo, ip",insensitive
Cc1c(C(=O)NN2CCCCC2)nn(-c2ccc(Cl)cc2Cl)c1-c1ccc(Cl)cc1 [rimonabant],effect of low-dose rimonabant alone on stress analgesia,[1]; 0.2 nmol in PAG,insufficient to reverse
same,rimonabant effect on MAFP enhancement of stress analgesia,"[1]; co-injection, rimonabant 0.2 nmol",blocked
same,"effect of antagonist on stress-induced analgesia, systemic","[1]; i.p., naltrexone 14 mg-kg^−1, rimonabant, AM251, SR144528 5 mg-kg^−1",almost abolished
same,rimonabant effect on URB602 enhancement of stress analgesia,"[1]; local co-administration in PAG, rimonabant 0.2 nmol",prevented
same,"effect on stress-induced analgesia, ventrolateral PAG",[1]; rimonabant 2 nmol,inactive
same,"effect on stress-induced analgesia, dorsolateral PAG",[1]; rimonabant 2 nmol microinjected,significantly reduced
same,rimonabant effect on URB597 potentiation of stress analgesia,"[1]; rimonabant 1 mg-kg^−1 i.p., 0.2 nmol in the PAG",prevented
same,rimonabant effect on VDM11 enhancement of stress analgesia,[1]; rimonabant 2 mg-kg^−1 i.p.,blocked
same,"effect on stress-induced analgesia, lateral ventricle",[1]; rimonabant 2-10 nmol,ineffective
same,basal nociceptive threshold (tail-flick latencies) in absence of stressor,[3],does not alter
